This assay has as its target Proto-oncogene tyrosine-protein kinase Src (Homo sapiens, UniProt P12931). The assay is described as follows: Concentration of compound required for inhibiting the binding of the fluorescent probe to the c-Src tyrosine kinase SH2 domain by 50%.

Where only a bound is given, the exact number is not on record here.

Chain of Proto-oncogene tyrosine-protein kinase Src (P12931 2-536 limits assumed): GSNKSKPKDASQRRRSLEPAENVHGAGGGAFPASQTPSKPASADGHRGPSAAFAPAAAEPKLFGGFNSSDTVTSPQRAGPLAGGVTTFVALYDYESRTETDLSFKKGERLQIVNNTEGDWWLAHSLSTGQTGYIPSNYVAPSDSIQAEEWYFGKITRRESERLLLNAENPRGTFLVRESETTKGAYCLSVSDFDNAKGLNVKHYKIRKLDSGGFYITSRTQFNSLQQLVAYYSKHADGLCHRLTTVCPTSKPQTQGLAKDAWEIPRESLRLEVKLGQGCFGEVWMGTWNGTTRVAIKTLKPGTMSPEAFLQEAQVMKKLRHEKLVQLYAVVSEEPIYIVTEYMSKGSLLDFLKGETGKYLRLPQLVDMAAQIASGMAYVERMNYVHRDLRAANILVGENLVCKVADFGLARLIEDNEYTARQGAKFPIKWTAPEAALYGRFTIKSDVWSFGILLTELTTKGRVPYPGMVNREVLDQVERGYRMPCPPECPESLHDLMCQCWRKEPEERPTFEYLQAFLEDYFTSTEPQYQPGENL

As usually defined, the IC50 is the midpoint of a concentration-inhibition curve. Higher therefore signals weaker potency in that assay. In turn, `CC[C@H](C)[C@H](NC(=O)C[C@H](NC(=O)[C@H](CCC(=O)O)NC(=O)[C@@H](N)Cc1ccc(OP(=O)(O)O)cc1)C(=O)O)C(=O)O` displayed an IC50 above 100 µM.

The compound `CC[C@H](C)[C@H](NC(=O)C[C@@H]1NC(=O)[C@H](CCC(=O)O)NC(=O)[C@H](Cc2ccc(OP(=O)(O)O)cc2)NC1=O)C(=O)O` came in with a 50% inhibitory concentration (IC50) of 1.5 µM. `CC[C@@H](C)[C@H](NC(=O)[C@H](CCC(=O)O)NC(=O)C[C@H](NC(=O)[C@@H](N)Cc1ccc(OP(=O)(O)O)cc1)C(=O)O)C(=O)O` returned a half-inhibitory concentration (IC50) above 100 µM. With `CC(C)[C@H](NC(=O)C[C@@H](CCC(=O)O)NC(=O)C(NC(=O)[C@@H](N)Cc1ccc(OP(=O)(O)O)cc1)C(=O)O)C(=O)O` (single isomer, unassigned) the figure was 83.2 µM.

`CC[C@H](C)[C@H](NC(=O)CC[C@@H]1NC(=O)[C@H](CCC(=O)O)NC(=O)[C@H](Cc2ccc(OP(=O)(O)O)cc2)NC1=O)C(=O)O`: the IC50 came to 1.1 µM. As to `CC[C@H](C)[C@H](NC(=O)CC[C@H](NC(=O)[C@H](CCC(=O)O)NC(=O)[C@@H](N)Cc1ccc(OP(=O)(O)O)cc1)C(=O)O)C(=O)O`, the concentration for half-maximal inhibition (IC50) is above 100 µM.

With `CC[C@H](C)[C@H](NC(=O)[C@H](CCC(=O)O)NC(=O)[C@@H]1CCC(=O)N[C@@H](Cc2ccc(OP(=O)(O)O)cc2)C(=O)N1)C(=O)O`, the IC50 is 3.3 µM. The value for `CC[C@H](C)[C@H](NC(=O)CC[C@H](NC(=O)[C@H](CCC(=O)O)NC(=O)[C@H](Cc1ccc(OP(=O)(O)O)cc1)NC(C)=O)C(=O)O)C(=O)O` was 80.7 µM. Turning to `CC[C@@H](C)[C@H](NC(=O)[C@H](CCC(=O)O)NC(=O)CC[C@@H]1NC(=O)[C@H](Cc2ccc(OP(=O)(O)O)cc2)NC1=O)C(=O)O`, the half-maximal inhibitory concentration (IC50) was determined as 1.2 µM. This IC50 lies about 67-fold lower than the previous one. With `CC(=O)N[C@@H](Cc1ccc(OP(=O)(O)O)cc1)C(=O)N[C@@H](CCC(=O)O)C(=O)N[C@H](CC(=O)O)CC(=O)N[C@H](C(=O)O)C(C)C` the figure was 25.7 µM.

`CC[C@@H](C)[C@H](NC(=O)[C@H](CCC(=O)O)NC(=O)C[C@H](NC(=O)[C@H](Cc1ccc(OP(=O)(O)O)cc1)NC(C)=O)C(=O)O)C(=O)O` displayed an IC50 of 75.4 µM. `CC(C)[C@H](NC(=O)C[C@@H](CC(=O)O)NC(=O)[C@H](CCC(=O)O)NC(=O)[C@@H](N)Cc1ccc(OP(=O)(O)O)cc1)C(=O)O`: the IC50 was 76.3 µM. With `CC(=O)N[C@@H](Cc1ccc(OP(=O)(O)O)cc1)C(=O)N[C@@H](C(=O)O)C(=O)N[C@H](CCC(=O)O)CC(=O)N[C@H](C(=O)O)C(C)C`, the IC50 was 34.6 µM.

For the compound `CC[C@H](C)[C@H](NC(=O)[C@@H]1CCC(=O)N[C@@H](Cc2ccc(OP(=O)(O)O)cc2)C(=O)N[C@@H](CCC(=O)O)C(=O)N1)C(=O)O`, the IC50 stood at 5.9 µM. On to `CC[C@@H](C)[C@H](NC(=O)[C@H](CCC(=O)O)NC(=O)CC[C@H](NC(=O)[C@@H](N)Cc1ccc(OP(=O)(O)O)cc1)C(=O)O)C(=O)O`, for which the IC50 was above 100 µM. In turn, `CC[C@@H](C)[C@H](NC(=O)[C@H](CCC(=O)O)NC(=O)CC[C@H](NC(=O)[C@H](Cc1ccc(OP(=O)(O)O)cc1)NC(C)=O)C(=O)O)C(=O)O` displayed an IC50 of 69.5 µM. As for `CC[C@@H](C)[C@H](NC(=O)[C@H](CCC(=O)O)NC(=O)C[C@@H]1NC(=O)[C@H](Cc2ccc(OP(=O)(O)O)cc2)NC1=O)C(=O)O`, the IC50 amounted to 12.1 µM. With `CC[C@H](C)[C@H](NC(=O)C[C@H](NC(=O)[C@H](CCC(=O)O)NC(=O)[C@H](Cc1ccc(OP(=O)(O)O)cc1)NC(C)=O)C(=O)O)C(=O)O` the figure was 90.7 µM.

(Values after ChEMBL document CHEMBL1148323, “Conformationally constrained peptide analogues of pTyr-Glu-Glu-Ile as inhibitors of the Src SH2 domain binding” (J Med Chem, 2004).)
